Results published in patent publication US12551478B2, “Quinoline derivative having indoleamine-2,3-dioxygenase inhibitory activity” (SHENZHEN CHIPSCREEN BIOSCIENCES CO., LTD., priority 2018, dated 2026).
Several values for one entry are separate records, joined by “and”; a condition that tells them apart may be missing. Equal values may be shown once.

Assays:
IDO in HeLa cell = target: T1, IDO in HeLa cell (Homo sapiens, UniProt P14902); assay: Inhibition of IDO enzyme activity in HeLa cells by Chidamide in combination with IDO inhibitor; type: cell-based; details: IFN-γ, 48 hours
T1 construct: 50 ng/ml cytokine human IFN-γ and drugs with different concentrations; endogenous in cells; host or cells: HeLa cells stimulated with human IFN-γ
Experimental: HeLa cells were digested by trypsin, collected and counted, then inoculated in a 96-well cell culture plate at 2×10^4 cells per well and cultured at 5% CO2 and 37° C. After the cells were inoculated overnight, the medium was replaced with 200 μM L-tryptophan phenol red-free DMEM medium, and 50 ng/ml cytokine human IFN-γ and drugs with different concentrations (administered according to the group and final concentration shown in FIG. 1) were added simultaneously, the vehicle control (DMSO) and cytokine-free and L-tryptophan negative control wells were set at the same time, and triplicate wells were set. After 48 hours of drug treatment, 200 μL of the supernatant from culture well was pipetted out, added with 40 μL of pre-prepared 30% (w/v) trichloroacetic acid solution, reacted at 65° C. for 20 minutes, and then centrifuged at 12000 rpm for 15 minutes. 100 μL of the supernatant was pipetted out and added into a 96-well flat bottom plate, then equal volume of 2% p-dimethylaminobenzaldehyde in glacial acetic acid was added and mixed well, and stood at room temperature for 10 minutes. The absorbance value of each well at wavelength of 492 nm was read with microplate reader (ELX800NB). After subtracting the cell-free medium OD492-BLK as a blank control from the reading of each well, the OD492-T of each dosing well with subtraction of the detection background and the […] of drug-free positive control well were obtained.
The relative enzyme activity inhibition rate against IDO of each dosing well cell was calculated according to the following formula: enzyme activity inhibition rate against IDO=(OD492−T0−OD492−T)/OD492−T0×100%

[1] = target: T2, human indoleamine 2,3-dioxygenase 1 (hIDO1) (Homo sapiens, UniProt P14902); assay: Inhibitory activity test at cellular level: IFN-γ-induced HeLa cells, kynurenine colour reaction; type: cell-based; details: 48 hours; for inhibition at 0.1 µM: 50 ng/ml human IFN-γ, 200 μM L-tryptophan, each test compound 100 nM, read-out: hIDO1-cell base inhibition rate (%); for EC50: human IFN-γ, read-out: hIDO1-cell base EC50
T2 construct: up-regulate the expression of endogenous IDO1 under the induction of human IFN-γ; endogenous in cells; host or cells: HeLa cells stimulated with human IFN-γ
Text: The subject of this assay was to comprehensively evaluate different compounds on their enzymatic inhibitory activity in vitro and on cell models against human indoleamine 2,3-dioxygenase 1 (hIDO1).
In the present application, the inventors used Hela cells expressing IDO1 induced by IFN-γ as a model, to test the IDO1 inhibitory activity of the compounds at the cellular level.
HeLa cells are human cervical cancer cell lines, which can up-regulate the expression of endogenous IDO1 under the induction of human IFN-γ. By adding the substrate L-tryptophan to cell culture medium, the enzymatic catalysis product kynurenine in cell supernatant was detected. In this experiment, the cultured Hela cells were used and co-incubated with different concentrations of test compounds under stimulation of human IFN-γ for a specified period of time, and the color reaction method of enzyme product and p-dimethylaminobenzaldehyde was used to detect the effect on IDO enzyme activity of cells treated by the test compounds.
(1) Hela cells were inoculated into 96-well culture plates at an appropriate concentration (about 20,000 cells/well). […] The cells were continuously cultured for 48 hours before detection.
(2) 200 μL of the supernatant in the culture well was pipetted out, added with 40 μL of the pre-prepared 30% (w/v) trichloroacetic acid solution, and reacted at 65° C. for 20 minutes, and then centrifuged at 12000 rpm for 15 minutes.
(3) 100 μL of the supernatant after centrifugation was pipetted out, added into a 96-well flat bottom plate, then added with an equal volume of 2% p-dimethylaminobenzaldehyde in glacial acetic acid and mixed well, and stood at room temperature for 10 minutes.
(4) microplate reader (ELX800NB) was used to detect the absorbance value of each well, and the detection wavelength was 492 nm.
In addition, after the cell enzyme activity inhibition rates of test compounds with different concentration gradients were separately calculated, their cell enzyme activity half inhibition concentrations (EC50) were calculated by using EC50 calculator.
According to the above-mentioned experimental method, the compounds of the present application were subjected to IDO1 enzymatic evaluation at cytological level (the concentration of each test compound was all 100 nM).
According to the above-mentioned experimental method, the compound of the present application was subjected to hIDO1-cell base EC50 detection.

CT-26 tumor [2] = assay: Efficacy experiment on Balb/c mouse CT-26 tumor model; type: in vivo; details: method similar to Example 93
CT-26 tumor [3] = assay: as above; type: in vivo; details: for average tumor weight: Example 93, FIG. 6: tumors stripped after last administration on 17th day, vehicle group 2.7 g; for Relative tumor inhibition rate (%): Example 93: Chidamide 25 mg/kg, Example 3 20 mg/kg, intragastric once per day, 17 days, tumor volume vs vehicle control
Experimental: CT-26 cells were subjected to multiplication culture and kept in a logarithmic growth state. After the number of cells met the requirement, the cells were digested with trypsin and collected, washed sufficiently with a large amount of PBS twice to remove trypsin and serum components, centrifuged at room temperature and 800 rpm for 10 minutes, and the supernatant was discarded. The cells were resuspended in FBS-free DMEM medium and adjusted to reach a cell concentration of 3×10^7/mL.
Under aseptic condition, the cell suspension was injected into subcutaneous of back of […] at a dose of 100 μL/needle, one injection per Balb/c mouse. During the injection, 1 mL disposable medical syringe was used to ensure that the position and direction for inserting needle to each mouse was basically the same.
Eight days after cell inoculation, the tumor grew to an average volume of about 100 mm^3. The tumor-bearing mice were randomly divided into four groups (9 mice in each group), namely the vehicle control group, the chidamide group (25 mg/kg, intragastric administration, once per day), Example 3 group (20 mg/kg, intragastric administration, once per day), and the combination of Chidamide and Example 3 group, and then the mice were raised in cages after labeling, the mice was administered according to groups and observed for tumor formation every day. The body weight of each mouse was weighted before administration, and the dose was calculated according to per kilogram of body weight, that was, 10 μL of CMC-Na solution per gram of body weight for the vehicle control group, 10 μL of 2.5 mg/mL Chidamide-CMC-Na suspension per gram of body weight for the chidamide group (25 mg/kg), 10 μL of 2 mg/mL the compound of Example 3-CMC-Na suspension per gram of body weight for the Example 3 group (20 mg/kg), and 10 μL of CMC-Na suspension containing 2.5 mg/ml chidamide and 2 mg/ml the compound of Example 3 per gram of body weight for the combination group were administered intragastrically. The longest diameter of tumor (length) and the widest diameter (width) perpendicular thereto were measured by vernier caliper every 2 days, and the tumor volume was calculated by the formula TS=length×(width)^2/2 and recorded. Each mouse was intragastrically administered once per day at regular time; after the last administration on the 17th day, the mice were sacrificed and the tumors of tumor-bearing mice were stripped and weighed with […].
The relative tumor inhibition rate of each administration group was calculated according to the following formula: Relative tumor inhibition rate=(average tumor volume of the vehicle control group−average tumor volume of the administration group)/average tumor volume of the vehicle control group×100%

hERG potassium channel = target: T3, hERG potassium channel (Homo sapiens, UniProt Q12809); assay: hERG inhibitory activity assay (patch clamp method), HEK293 cells stably expressing hERG; type: cell-based; details: whole-cell patch clamp, HEK293, 0.3-30 μM, room temperature; read-out: hERG inhibition EC50 value
T3 construct: expressed in transfected cells
Text: Non-cardiac drugs may cause the prolongation of myocardial action potential duration by inhibiting the hERG (IKr) channel, increasing the possibility of life-threatening torsade de pointes (TdP) ventricular arrhythmia. In this experiment, HEK293 cell line without endogenous IKr current was used as host cell (this cell line was widely used in the detection of hERG) to evaluate the cardiotoxicity of Example 85 in patent CN108203438A and Example 87 of the present application.
(1) HEK293 cell line stably expressing hERG potassium channel was cultured in DMEM medium containing 10% fetal bovine serum and 0.8 mg/mL G418 under the condition of 37° C. and 5% CO2. […]
A capillary glass tube was drawn into a recording electrode with a microelectrode puller. […] Then, slow capacitance compensation was performed, and the membrane capacitance and series resistance were recorded. […]
When the hERG current of the whole-cell recording was stabilized, the drug was administered. […] The current detected for each cell in the compound-free extracellular fluid was used as its own control group. […]
[formula] and then the inhibition rate corresponding to each concentration was calculated
[formula] For each concentration, mean number and standard error were calculated, and the following equation was used to calculate the half inhibitory concentration of each compound: […]

[4] = Example 90, Table 4: chidamide and Example 20 alone and in combination, FIG. 2
[5] = Example 94, Table 8: chidamide and Example 20 alone and in combination
[6] = Example 89, Table 3: chidamide and Example 3 alone and in combination, concentrations per FIG. 1
[7] = Example 91, Table 5: chidamide and Example 72 alone and in combination, FIG. 3
[8] = Example 95, Table 9: chidamide and Example 72 alone and in combination
[9] = Example 92, Table 6: chidamide and Example 87 alone and in combination, FIG. 4
[10] = Example 96, Table 10: chidamide and Example 87 alone and in combination

T2 sequence (P14902 whole entry): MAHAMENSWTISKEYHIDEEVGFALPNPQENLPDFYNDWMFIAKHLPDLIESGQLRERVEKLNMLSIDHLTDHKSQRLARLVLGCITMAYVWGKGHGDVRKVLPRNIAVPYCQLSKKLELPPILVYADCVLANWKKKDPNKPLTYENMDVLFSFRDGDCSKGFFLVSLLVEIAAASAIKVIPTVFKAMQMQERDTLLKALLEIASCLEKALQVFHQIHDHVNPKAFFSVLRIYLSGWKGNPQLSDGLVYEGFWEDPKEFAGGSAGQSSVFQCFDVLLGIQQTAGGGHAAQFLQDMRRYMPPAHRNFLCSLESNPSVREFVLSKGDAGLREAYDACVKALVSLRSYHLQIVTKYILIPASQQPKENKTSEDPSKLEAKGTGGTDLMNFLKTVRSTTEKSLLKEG
T1 sequence (P14902 whole entry): as above
T3 sequence (Q12809 whole entry): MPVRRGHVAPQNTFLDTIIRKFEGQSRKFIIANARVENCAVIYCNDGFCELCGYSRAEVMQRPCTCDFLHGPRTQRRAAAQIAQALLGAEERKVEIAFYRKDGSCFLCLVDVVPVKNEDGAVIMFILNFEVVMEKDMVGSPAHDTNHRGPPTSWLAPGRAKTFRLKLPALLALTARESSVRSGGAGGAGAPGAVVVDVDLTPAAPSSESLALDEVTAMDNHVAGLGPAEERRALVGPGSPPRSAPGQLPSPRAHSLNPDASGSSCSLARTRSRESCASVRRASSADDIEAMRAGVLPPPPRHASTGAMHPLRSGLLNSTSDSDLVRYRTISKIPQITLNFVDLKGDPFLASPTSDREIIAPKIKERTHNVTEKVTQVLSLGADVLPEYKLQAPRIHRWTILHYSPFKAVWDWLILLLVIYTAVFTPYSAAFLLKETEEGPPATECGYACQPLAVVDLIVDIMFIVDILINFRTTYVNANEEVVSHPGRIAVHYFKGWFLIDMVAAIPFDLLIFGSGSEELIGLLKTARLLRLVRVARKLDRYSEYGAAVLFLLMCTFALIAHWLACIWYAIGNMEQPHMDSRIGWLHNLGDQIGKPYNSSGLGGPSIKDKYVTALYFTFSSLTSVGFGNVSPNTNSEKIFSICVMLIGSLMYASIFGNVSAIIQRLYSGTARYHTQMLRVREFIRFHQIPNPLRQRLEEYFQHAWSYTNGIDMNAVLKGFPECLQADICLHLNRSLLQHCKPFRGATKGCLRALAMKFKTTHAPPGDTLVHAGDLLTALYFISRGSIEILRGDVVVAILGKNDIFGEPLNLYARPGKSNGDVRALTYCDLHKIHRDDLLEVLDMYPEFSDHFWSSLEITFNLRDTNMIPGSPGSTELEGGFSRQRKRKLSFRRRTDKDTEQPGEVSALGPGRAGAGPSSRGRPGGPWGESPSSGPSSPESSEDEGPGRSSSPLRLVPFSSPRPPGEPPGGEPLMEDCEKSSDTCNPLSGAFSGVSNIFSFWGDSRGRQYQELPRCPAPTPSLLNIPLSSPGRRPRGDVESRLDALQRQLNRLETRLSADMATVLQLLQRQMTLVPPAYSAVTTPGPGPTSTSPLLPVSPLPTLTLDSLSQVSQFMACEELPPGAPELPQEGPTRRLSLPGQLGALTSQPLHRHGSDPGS

SMILES | Average inhibition rate (%) against IDO (IDO in HeLa cell; [4]) [%] | inhibition at 0.1 µM [1] [%] | EC50 [1] [nM] | Average inhibition rate (%) against IDO (IDO in HeLa cell; [6]) [%] | Average inhibition rate (%) against IDO (IDO in HeLa cell; [7]) [%] | Average inhibition rate (%) against IDO (IDO in HeLa cell; [9]) [%] | Relative tumor inhibition rate (%) (CT-26 tumor [2]; [5]) | average tumor weight (CT-26 tumor [3]) [g] | Relative tumor inhibition rate (%) (CT-26 tumor [3]) | Relative tumor inhibition rate (%) (CT-26 tumor [2]; [8]) | Relative tumor inhibition rate (%) (CT-26 tumor [2]; [10]) | EC50 (hERG potassium channel) [nM]
O=C(Nc1ccc2c(c1)OCO2)N1CC2(CC(Oc3ccnc4ccc(F)cc34)C2)C1 [Example 20, N-(benzo[d][1,3]dioxol-5-yl)-6-((6-fluoroquinolin-4-yl)oxy)-2-aza-spiro[3.3]heptan-2-carboxamide] | 16 | 64 | 46 |  |  |  | 8.3 |  |  |  |  | 
CC(C(=O)Nc1ccc(Cl)cc1)N1CC2C(C1)C2Nc1ccnc2ccc(F)cc12 (centres unmarked) [Example 72, 2-(6-((6-fluoroquinolin-4-yl)amino)-3-aza-bicyclo[3.1.0]hexan-3-yl)-N-(4-chlorophenyl)propionamide] |  | 88 | 8 |  | 36 |  |  |  |  | 7.6 |  | 
O=C(CNc1ccc2c(c1)OCO2)N1CCC(C(O)CC2c3c(F)cccc3-c3cncn32)CC1 (centres unmarked) [Example 87, 2-(benzo[d][1,3]dioxol-5-yl-amino)-1-(4-(2-(6-fluoro-5H-imidazo[5,1-a)isoindol-5-yl)-1-hydroxyethyl)piperidin-1-yl)ethyl-1-one] |  | 23 |  |  |  | 20 |  |  |  |  | 45 | 4600

Further lines, with some results ahead:

Average inhibition rate (%) against IDO (IDO in HeLa cell; [4]) [%] | inhibition at 0.1 µM [1] [%] | EC50 [1] [nM] | Average inhibition rate (%) against IDO (IDO in HeLa cell; [6]) [%] | Average inhibition rate (%) against IDO (IDO in HeLa cell; [7]) [%] | Average inhibition rate (%) against IDO (IDO in HeLa cell; [9]) [%] | SMILES | Relative tumor inhibition rate (%) (CT-26 tumor [2]; [5]) | average tumor weight (CT-26 tumor [3]) [g] | Relative tumor inhibition rate (%) (CT-26 tumor [3]) | Relative tumor inhibition rate (%) (CT-26 tumor [2]; [8]) | Relative tumor inhibition rate (%) (CT-26 tumor [2]; [10]) | EC50 (hERG potassium channel) [nM]
 | 90 | 14 | 31 |  |  | O=C(Nc1ccc(Cl)cc1)N1CC2(CC(Oc3ccnc4ccc(F)cc34)C2)C1 [Example 3, N-(4-chlorophenyl)-6-((6-fluoroquinolin-4-yl)oxy)-2-aza-spiro[3.3]heptan-2-carboxamide] |  | 2.3 | 20% and 20.1% |  |  | 
22 |  |  | 24 | 23 | 23 | Nc1cc(F)ccc1NC(=O)c1ccc(CNC(=O)/C=C/c2cccnc2)cc1 [Chidamide, reference compound] | 30 | 1.6 | 33% and 33.6% | 25.4 | 55 | 
